Test results as given in BindingDB's records for doi:10.1021/acs.jmedchem.3c01130 (University of Toledo College of Medicine and Life Sciences, 2023).
pIC50: −log10 of the molar value.

Biological target: Transcription factor Sp1 (Homo sapiens, UniProt P08047)
Experiment: Inhibition of human SP1 transfected in PC-3 cells by renilla luciferase reporter gene assay

Transcription factor Sp1, sequence (P08047 whole entry): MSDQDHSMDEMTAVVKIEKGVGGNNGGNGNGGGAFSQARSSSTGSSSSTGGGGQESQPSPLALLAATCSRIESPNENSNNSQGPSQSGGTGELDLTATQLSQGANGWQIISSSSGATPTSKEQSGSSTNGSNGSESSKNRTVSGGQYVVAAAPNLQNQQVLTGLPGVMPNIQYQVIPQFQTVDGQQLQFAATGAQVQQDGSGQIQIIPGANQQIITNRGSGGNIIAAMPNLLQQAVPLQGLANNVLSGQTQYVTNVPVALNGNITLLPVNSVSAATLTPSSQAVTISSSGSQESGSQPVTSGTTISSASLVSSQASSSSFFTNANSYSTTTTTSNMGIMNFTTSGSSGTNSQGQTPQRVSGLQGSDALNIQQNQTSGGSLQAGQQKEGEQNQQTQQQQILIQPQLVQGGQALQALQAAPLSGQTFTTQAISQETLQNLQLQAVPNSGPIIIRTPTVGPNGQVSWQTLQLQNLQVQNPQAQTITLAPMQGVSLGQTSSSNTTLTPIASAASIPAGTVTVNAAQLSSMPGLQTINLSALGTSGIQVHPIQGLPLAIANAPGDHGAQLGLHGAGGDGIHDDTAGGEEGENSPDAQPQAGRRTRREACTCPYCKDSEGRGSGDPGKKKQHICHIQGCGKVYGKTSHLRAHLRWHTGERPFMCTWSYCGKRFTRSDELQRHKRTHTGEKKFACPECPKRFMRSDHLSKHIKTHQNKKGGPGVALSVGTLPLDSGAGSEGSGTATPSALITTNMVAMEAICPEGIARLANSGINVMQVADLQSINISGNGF

pIC50: 8.10
SMILES: COCC[n+]1c2c(n(Cc3cnccn3)c1C)C(=O)c1ccccc1C2=O [Sepantronium Bromide]
